{"source": "patent US20240382730A1", "about": "“FLEXIBLE MICRONEEDLE ARRAY PATCH FOR CHRONIC WOUND OXYGENATION AND BIOFILM ERADICATION” (Purdue Research Foundation, priority 2021, published 2024)", "system": "S. aureus mature biofilm", "experiment": "Colony biofilm model, mature biofilm", "type": "cell-based, Staphylococcus aureus", "settings": "FIG. 9a; powder amount estimated equal to that in the CPO-loaded MN sample, 24 h", "description": "Biofilm Antibacterial Studies. Antibiofilm activity of MNs loaded with CPO was evaluated by the colony biofilm model. Overnight cultures of S. aureus and P. aeruginosa were diluted to 2×10^5 CFU mL−1 with TSB. Next, 50 μL of the diluted bacterial suspension was inoculated onto sterile 10 mm nitrocellulose disks placed on the surface of tryptic soy agar (TSA) plates. To allow biofilm development on the nitrocellulose membrane, the plates were incubated at 37° C. for 72 h. The developed biofilm was then nourished by aseptically transferring to new TSA plates every day for 4 days.31,38 After maturation of the biofilms, 12 mm disks of MNs loaded with CPO and control samples including PET films, CPO powder, and 12 mm disks of MNs without CPO were placed onto the biofilm using sterile forceps. The quantity of CPO powder in the control was estimated to be the amount of CPO powder present in the sample of MNs loaded with CPO. For all experiments, biofilms without any treatments were used as the negative control. The plates were further incubated at 37° C. for 24 h immediately after each treatment. […] The plates were further incubated at 37° C. for 24 h and viable CFU mL−1 were calculated."}
{"smiles": "[Ca+2].[O-][O-]", "note": "[CPO, calcium peroxide]", "values": [{"measurement": "effect on number of colonies in biofilm", "result": "did not affect the number of colonies"}]}
